# Measured values as given in US20180153872A1, “HETEROARYL CARBONITRILES FOR THE TREATMENT OF DISEASE” (OPKO Health, Inc., priority 2015, published 2018).
# Read-outs that look alike come from different tables or passages of the source.
# Experiments:
# NK1 receptors [1] = target: NK1 receptors (Rattus norvegicus, UniProt P14600); assay: NK1 receptor radioligand binding, rat; details: no unit, Ki in nM
# Description: (§1) SCH900978 was also tested for NK2 and NK3 receptor activity and in 106 other receptors, transporters, enzymes and ion channels and had greater than 1000 fold lower affinity for these than for the NK1 receptor.
# NK1 receptors [2] = target: NK1 receptors (Mus musculus, UniProt P30548); assay: NK1 receptor radioligand binding, mouse; details: no unit, Ki in nM
# Description: as §1
# NK1 receptor = NK1 receptor (Homo sapiens, UniProt P25103); assay: Block of GR-73632-mediated calcium efflux in cells expressing the human NK1 receptor (Schild analysis); type: cell-based; details: GR-73632-stimulated calcium efflux, read-out: Kb, equilibrium dissociation constant determined by Schild analysis
# Description: (§2) A compound of formula I (also designated SCH 900978) is a potent, selective, competitive neurokinin-1 (NK-1) receptor antagonist that is effective as an oral administered drug for the treatment of cough and meets this unmet medical need. In addition, this drug is effective for the treatment of overactive bladder (OAB) and other selected indications including major depression and alcohol dependency. […] The present invention comprises a compound of formula I having an effective dose for 90% inhibition [ED90]=0.2 mg/kg as determined in an in vivo pharmacodynamic model of NK1 receptor activity (gerbil foot thumping).
# as §1
# NK2 receptor = target: T1, NK2 receptor (Homo sapiens, UniProt P21452); assay: NK2 receptor affinity; type: binding
# T1 sequence (P21452 1-398): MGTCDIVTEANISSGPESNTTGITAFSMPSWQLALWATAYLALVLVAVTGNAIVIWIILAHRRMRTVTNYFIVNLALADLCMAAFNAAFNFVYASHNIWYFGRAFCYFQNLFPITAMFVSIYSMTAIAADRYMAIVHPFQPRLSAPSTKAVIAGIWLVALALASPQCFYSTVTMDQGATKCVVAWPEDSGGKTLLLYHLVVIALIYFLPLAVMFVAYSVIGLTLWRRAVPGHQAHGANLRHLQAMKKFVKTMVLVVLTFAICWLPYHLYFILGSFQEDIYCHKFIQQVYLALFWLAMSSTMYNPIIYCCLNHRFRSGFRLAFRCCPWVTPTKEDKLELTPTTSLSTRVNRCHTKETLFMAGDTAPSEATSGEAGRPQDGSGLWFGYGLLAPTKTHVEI
# Description: as §2, §1
# capsaicin-induced cough = assay: Capsaicin-induced cough in conscious guinea pigs; type: in vivo; details: guinea pig
# Description: Inhalation of the irritant capsaicin induces coughing in both animals and humans, in part by releasing substance P from unmyelinated sensory C fibers in the lung. When administered orally to conscious guinea pigs six hours prior to inhalation of aerosolized capsaicin, SCH900978 attenuated capsaicin-induced cough in a dose-dependent manner (ED90=0.04 mg/kg) (FIG. 2).
# [3] = Metabolic pathways in the mammals tested; type: in vivo
# Description: (§3) Urinary excretion was also substantial (approximately 20%).
# [4] = Brain penetration, gerbils; type: in vivo, gerbil
# Description: as §3
# (§4) The extent of brain penetration by SCH 900978 was evaluated after oral administration of SCH 900978 amorphous hydrochloride to female gerbils (0.1 mg/kg), male Sprague Dawley rats (5 mg/kg), and male guinea pigs (0.3 mg/kg).
# [5] = Brain penetration, guinea pigs; type: in vivo, guinea pig
# Description: as §3, §4
# [6] = Rising single-dose safety, tolerability and pharmacokinetics study in healthy human volunteers; type: in vivo
# Description: A randomized, placebo-controlled, third party blind (within dose level), rising, single-dose escalation study to evaluate the safety, tolerability and pharmacokinetics of SCH900978 in healthy human volunteers was conducted and completed. […] Six subjects received placebo. […] Food had no effect on the oral bioavailability of SCH900978. […] Tmax occurred within 0-4 hours at each dosage strength. Table 2 below provides the mean SCH900978 pharmacokinetic parameters following administration of a single oral dose of 25 mgs of SCH900978 capsule or solution to healthy volunteers.
# Table 3 below provides the mean SCH900978 pharmacokinetic parameters following administration of a single oral dose of 50 mgs of SCH900978 to healthy volunteers under fasted and fed conditions.
# Solubility = type: physicochemical; details: pH 7, aqueous buffer
# Description: The present invention comprises a compound having activity in mammalian cough models and is thus useful in the treatment of cough in mammals, including humans, after oral administration. The present invention comprises an oral formulation of a compound of formula I and pharmaceutically acceptable excipients selected from the group consisting of diluents, binders, disintegrants, wetting agents and lubricants. In a preferred embodiment the pharmaceutical composition comprises a compound of formula I (or IIa-IIc) or II and lactose monohydrate, microcrystalline cellulose, povidone, crospovidone, poloxamer 188 and magnesium stearate. The preferred oral form is a capsule. The amount of active ingredient in the capsule or oral dosage form may range from 1 mg to 250 mgs with a preferred range of 10-150 mg with a more preferred range of 20-100 mg per day in humans. The present invention also relates to an NK-1 antagonist (e.g., Formula II) having a half-life of approximately 10-13 days. The present invention further relates to a method of treating pruritus comprising administering a pharmaceutically effective amount of a compound of formula II having a half-life of 10-13 days to a patient in need of treatment thereof. […] The measured onset melting temperature as measured by differential scanning calorimetry (DSC) is 168.9. […]
# [7] = 25 mg solution, single oral dose, n = 5
# [8] = 50 mg fasted, single oral dose, n = 6
# [9] = 50 mg fed, single oral dose, n = 6
# Sequence of NK1 receptor (P25103 whole entry): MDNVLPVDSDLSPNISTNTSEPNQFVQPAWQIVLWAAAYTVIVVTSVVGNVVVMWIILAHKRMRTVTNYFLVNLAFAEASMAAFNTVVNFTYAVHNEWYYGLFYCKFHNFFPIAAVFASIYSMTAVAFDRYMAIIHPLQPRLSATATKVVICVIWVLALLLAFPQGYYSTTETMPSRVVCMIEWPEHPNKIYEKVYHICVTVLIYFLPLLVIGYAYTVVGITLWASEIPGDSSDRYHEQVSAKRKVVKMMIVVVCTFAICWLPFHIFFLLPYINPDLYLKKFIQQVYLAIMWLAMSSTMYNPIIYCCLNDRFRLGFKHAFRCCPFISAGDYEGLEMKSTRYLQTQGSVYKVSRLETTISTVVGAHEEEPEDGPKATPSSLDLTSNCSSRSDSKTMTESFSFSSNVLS
# Sequence of NK1 receptors (Rattus norvegicus, UniProt P14600) (P14600 whole entry): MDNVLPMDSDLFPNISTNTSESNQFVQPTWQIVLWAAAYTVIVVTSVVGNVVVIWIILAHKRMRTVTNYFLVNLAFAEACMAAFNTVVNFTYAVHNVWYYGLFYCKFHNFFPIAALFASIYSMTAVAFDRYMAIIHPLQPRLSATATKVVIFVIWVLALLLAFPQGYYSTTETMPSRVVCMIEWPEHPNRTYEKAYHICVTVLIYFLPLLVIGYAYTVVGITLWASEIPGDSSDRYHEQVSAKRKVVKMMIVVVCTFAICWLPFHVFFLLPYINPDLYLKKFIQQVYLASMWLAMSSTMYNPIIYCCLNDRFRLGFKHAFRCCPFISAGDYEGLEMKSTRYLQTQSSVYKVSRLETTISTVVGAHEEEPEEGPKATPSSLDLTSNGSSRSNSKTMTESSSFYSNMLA
# Sequence of NK1 receptors (Mus musculus, UniProt P30548) (P30548 whole entry): as the sequence (P14600 whole entry) above, with M7V, I15T, V266I, E367D counted along it
structure (smiles),measurement,setting,value
"C[C@@H](OC[C@@]1(c2ccccc2)CC[C@](C#N)(n2cn[nH]c2=O)CN1)c1cc(C(F)(F)F)cc(C(F)(F)F)c1 [Compound 42, (3 S,6S)-6-({(1R)-1-[3,5-bis(trifluoromethyl)phenyl]ethoxy}methyl)-3-(5-oxo-1,5dihydro-4H-1,2,4-triazol-4-yl)-6-phenylpiperidine-3-carbonitrile]",Ki,NK1 receptors [1],4.62 nM
same,Ki,NK1 receptors [2],0.76 nM
same,Kb,NK1 receptor,0.17 nM
same,Ki,NK2 receptor,> 1000 nM
same,fold lower affinity than for the NK1 receptor,NK2 receptor; NK2 vs NK1,greater than 1000 fold
same,maximal inhibition of capsaicin-induced cough,capsaicin-induced cough,comparable to that produced by the standard antitussive agents
same,"ED90, capsaicin-induced cough","capsaicin-induced cough; oral, six hours prior to aerosolized capsaicin",0.04 mg/kg
same,major metabolic pathways,[3],oxidation and glucuronidation
same,crossing of the blood brain barrier,[4],readily crossed the blood brain barrier
same,crossing of the blood brain barrier,[5],readily crossed the blood brain barrier
same,Tf Mean/% CV,"[6]; 25 mg capsule, single oral dose, n = 5",312^b/0^ hr
same,Cmax Mean/% CV,"[6]; 25 mg capsule, single oral dose, n = 6",213/27
same,AUC(tf) Mean/% CV,[6]; [7],29900/22
same,Tf Mean/% CV,[6]; [7],312/0
same,Cmax Mean/% CV,"[6]; 25 mg solution, single oral dose, n = 5, adjusted for carryover",301/21
same,AUC(l) Mean/% CV,[6]; [8],88700/23
same,AUC(tf) Mean/% CV,[6]; [8],59700/24
same,Cmax Mean/% CV,[6]; [8],388/32
same,T1/2 Mean/% CV,[6]; [8],309/32
same,Tf Mean/% CV,[6]; [8],504/0
same,AUC(tf) Mean/% CV,[6]; [9],69000/19
same,Tf Mean/% CV,[6]; [9],504/0
same,Cmax Mean/% CV,"[6]; 50 mg fed, single oral dose, n = 6, adjusted for carryover",366/23
same,"bioavailability, solution versus capsule oral formulations",[6]; healthy volunteers,comparable
same,effect of food on oral bioavailability,[6]; healthy volunteers,no effect
same,safety and tolerability,"[6]; healthy volunteers, oral doses up to 50 mg",safe and well tolerated
same,absorption and elimination,"[6]; healthy volunteers, single oral doses 10, 25, 50 mg",rapidly absorbed and slowly eliminated
same,AUC,"[6]; human, plasma, oral, 10 mg to 200 mg dose, after a single dose, read-out: AUC plasma blood level",19000 to 352000 ng·h/mL
same,half-life,"[6]; human, plasma, oral, human, read-out: t1/2 (half-life)",10 to 13 days
same,Cmax,"[6]; human, plasma, oral, 10 mg to 200 mg dosage range, based on values from volunteers given 10, 25 and 50 mg, read-out: Cmax (either calculated or estimated)",103 to 1480 ng/mL
same,Tmax,"[6]; human, plasma, oral, each dosage strength 10, 25, 50 mg",0 to 4 h
same,AUC,"[6]; human, plasma, po, 25 mg, 25 mg capsule, single oral dose, n = 4, read-out: AUC(l) Mean/% CV",42900 ng·h/mL
same,half-life,"[6]; human, plasma, po, 25 mg, 25 mg capsule, single oral dose, n = 4, read-out: T1/2 Mean/% CV (converted)",9.92 days
same,AUC,"[6]; human, plasma, po, 25 mg, 25 mg capsule, single oral dose, n = 5, read-out: AUC(tf) Mean/% CV",25700 ng·h/mL
same,AUC,"[6]; human, plasma, po, 25 mg, 25 mg solution, single oral dose, n = 4, read-out: AUC(l) Mean/% CV",52600 ng·h/mL
same,half-life,"[6]; human, plasma, po, 25 mg, 25 mg solution, single oral dose, n = 4, read-out: T1/2 Mean/% CV (converted)",10.5 days
same,AUC,"[6]; human, plasma, po, 50 mg, 50 mg fed, single oral dose, n = 4, read-out: AUC(l) Mean/% CV",97000 ng·h/mL
same,half-life,"[6]; human, plasma, po, 50 mg, 50 mg fed, single oral dose, n = 4, read-out: T1/2 Mean/% CV (converted)",13.2 days
same,exposure (Cmax and AUC) versus dose,"[6]; single oral doses 10, 25, 50 mg",dose related
same,solubility,Solubility,1.8 µg/mL
